Measured values taken from patent US12234257B2, “Triterpene saponin derivative and use thereof” (KOREA INSTITUTE OF SCIENCE AND TECHNOLOGY, priority 2020, dated 2025).

Legend:
[1] = system: MPTP-induced in vivo PD model; experiment: Pole test; parameters: species or system mice (C57BL/6j); details: MPTP mice, 2 hours
Procedure: In this study, all animal management and experimental protocols were performed in compliance with guidelines of the Institutional Animal Care and Use Committee of the Korea Institute of Science and Technology. 40 mice (C57BL/6j, male, 8 weeks old) were purchased from SLC Inc. (Shizuoka, Japan). After arrival, every four mice were hosed in each cage (30 cm×18.5 cm×13 cm) and allowed free access to feed and water. All mice were housed under the following constant conditions: lights on from 6:00 to 18:00, a temperature of 23° C.±1° C., and a humidity of 50%±10%. After 7 days of a habituation period, the mice were used in the experiments according to standard protocols. 40 mice were classified into five groups such that eight mice belonged to each group. After the habituation period, all mice were orally administered with a drug every day. […] Each mouse was administered with a single dose of saline/MPTP injection every day for 8 days. At 7 days after the final MPTP injection, all mice were sacrificed by cervical dislocation, and then the whole brain, SNpc, and striatum (ST) were excised for biochemical analysis. […] Each mouse was placed on the top of the pole with the head raised up, and a time taken for the mouse to turn and descend the pole was recorded up to 120 seconds with a stopwatch. […] An average time of three tests was calculated to evaluate motor function.

[2] = system: MPTP-induced in vivo PD model; experiment: Wire hanging test; parameters: species or system mice (C57BL/6j); details: MPTP mice
Procedure: In this study, all animal management and experimental protocols were performed in compliance with guidelines of the Institutional Animal Care and Use Committee of the Korea Institute of Science and Technology. 40 mice (C57BL/6j, male, 8 weeks old) were purchased from SLC Inc. (Shizuoka, Japan). After arrival, every four mice were hosed in each cage (30 cm×18.5 cm×13 cm) and allowed free access to feed and water. All mice were housed under the following constant conditions: lights on from 6:00 to 18:00, a temperature of 23° C.±1° C., and a humidity of 50%±10%. After 7 days of a habituation period, the mice were used in the experiments according to standard protocols. 40 mice were classified into five groups such that eight mice belonged to each group. After the habituation period, all mice were orally administered with a drug every day. […] Each mouse was administered with a single dose of saline/MPTP injection every day for 8 days. […] A time taken for the mouse to fall off the wire was recorded up to 300 seconds. On the day before MPTP administration, the test was performed three times for each mouse, and an average hanging time of three tests was analyzed as an index to evaluate balance, myofunction, and coordination. […] Average latency to fall off the wire onto the bedding material was calculated for each mouse.

SMILES | behavior performance in pole test ([1]; 5 mg/kg and 15 mg/kg p.o.) | behavior performance in wire hanging test ([2]; 15 mg/kg p.o., 2 hours and 24 hours) | behavior performance in pole test ([1]; ropinirole (5 mg/kg p.o.)) | latency to fall off in wire hanging test ([2]; 5 mg/kg p.o., 2 hours)
C[C@@H]1O[C@@H](O[C@@H]2[C@@H](O)[C@H](O[C@@H]3[C@@H](O[C@@H]4OC[C@@H](O)[C@H](O)[C@H]4O)[C@@H](O)[C@H](O[C@H]4[C@H](OC(=O)[C@]56CCC(C)(C)C[C@H]5C5=CC[C@@H]7[C@@]8(C)C[C@H](O)[C@H](O[C@@H]9O[C@H](CO)[C@@H](O)[C@H](O[C@@H]%10OC[C@@H](O)[C@H](O)[C@H]%10O)[C@H]9O)[C@@](C)(CO)[C@@H]8CC[C@@]7(C)[C@]5(C)C[C@H]6O)OC[C@H](O)[C@@H]4O)O[C@H]3C)OC[C@H]2O)[C@H](O)[C@H](O)[C@H]1O [Compound 1, 3-O-β-D-xylopyranosyl-(1→3)-β-D-glucopyranosylpolygalacic acid 28-O-α-L-rhamnopyranosyl-(1→3)-β-D-xylopyranosyl-(1→4)-[β-D-xylopyranosyl-(1→3)]-α-L-rhamnopyranosyl-(1→2)-α-L-arabinopyranosyl ester] | considerably restored | impaired behavior performance was significantly improved |  | 
CCCN(CCC)CCc1cccc2c1CC(=O)N2 [ropinirole, reference compound] |  |  | considerably restored | improved latency deteriorated by MPTP
